We go through 17 compounds from US9656945B2, “3-acyl-ingenols II” (LEO LABORATORIES LIMITED, priority 2010, dated 2017).

Type in all cases: cell-based
Assay [1] deals with PMN's (polymorphonuclear leukocytes). Put plainly: Neutrophil oxidative burst assay. The conditions noted are these: Leukocyte, 40 min, read-out: Neutrophil oxidative burst Rel EC50 range. How it is done:
PMN's (polymorphonuclear leukocytes) were isolated and purified from fresh buffy coats by sequential sedimentation, density centrifugation and lysis of contaminating erythrocytes. Buffy coats were incubated with 2% methocel for 30-45 min to differentially sediment red blood cells. The leukocyte-rich supernatant was transferred to lymphoprep tubes to remove mononuclear cells by density centrifugation (400×g, 30 min). The pellet was resuspended and any remaining erythrocytes lysed using 0.2% NaCl for 30 sec before restoring isotonicity by the addition of 1.2% NaCl. This step was repeated until the cell pellet appears relatively free of red blood cells. Cells were resuspended in DPBS (Dulbecco's Phosphate Buffered Saline) (w.o. Ca^2+, Mg^2+) and the concentration adjusted to 1.4×10^6 cells/ml in HBSS (Hanks Balanced Salt solution) (w Ca^2+, Mg^2+) containing 0.1% BSA (Bovine Serum Albumin) and 5 mM glucose just prior to assay initiation. Titrated reference and test compounds were pre-mixed with HE (Hydroethidine) (10 μM final assay concentration) before addition to 96-well plates containing 2.5×10^5 cells. Following 40 min incubation at RT, changes in the respiratory burst was estimated by measuring fluorescence at 579 nm (excitation: 485 nm) using an Envision plate reader.
Test compound titration curves were fitted to a four-parameter sigmoidal curve after normalizing the effect of the test compound to the effect of the positive control (5×10^−7 M PEP0005). Rel EC50 denotes the concentration of test compound producing an effect that is midway between the fitted top and bottom. Abs EC50 is the concentration of test compound that provokes a response corresponding to 50% of the maximal effect associated with the positive control (5×10^−7 M PEP0005).

The test system of assay [2] is Primary human epidermal keratinocytes, HeKa. Put plainly: HeKa cytokine release (IL-8) assay. On the procedure: Primary human epidermal keratinocytes, HeKa, were seeded (10.000 cells/well) in 96-well plates the day before the assay. Test compounds were diluted in DMSO (dimethyl sulfoxide) and further diluted in assay medium and pipetted into wells of 96 well-plates containing HeKa cells. The plates were incubated for 6 h at 37° C. in humidified air with 5% CO2. Plates are centrifuged briefly to spin down cells at 4° C., the supernatant was removed and analysed by Meso Scale Discovery (MSD) 4-spot cytokine assay (Pro-inflammatory II Ultra Sensitive kit, MSD, MD, USA). The MSD assay employs a sandwich immunoassay format where capture antibodies were coated in a patterned array on the bottom of the wells of a 4-Spot-Multi-MSD plate. Standard samples were incubated in the MULTI-SPOT plates as well, and the cytokine (IL-8) binds to its corresponding capture antibody spot. The cytokine level was quantitated on a SECTOR™ Imager using a cytokine-specific Detection Antibody labelled with MSD SULFO-TAG™ reagent.
Test compound titration curves were fitted to a four-parameter sigmoidal curve after normalizing the effect of the test compound to the effect of the positive control (1.5×10^−7 M PEP0005). Rel EC50 denotes the concentration of test compound producing an effect that is midway between the fitted top and bottom.

Assay [3] relates to HeLa cells (ATCC CCL-002). Put plainly: Necrosis assay. As to conditions: Homo sapiens, 0.5 h, read-out: HeLa necrosis EC50 range. How it is done: HeLa cells (ATCC CCL-002) were grown in minimal essential medium (Invitrogen catalog no. 42360) containing 10% fetal bovine serum, 100 IU/ml penicillin and 100 μg/ml streptomycin. 4,000-6,000 cells were seeded into 96-well black ViewPlates-plates, clear bottom, (Perkin Elmer) in 100 μl medium and incubated overnight. Compounds were dissolved and pre-diluted in DMSO in 96-well polypropylene plates (Greiner) in a concentration range of 15 μM to 600 μM. At the time of the experiment cell plates were placed on heating blocks at 37° C., medium was removed and 40 μl fresh, pre-warmed medium was added per well. Cells were incubated for 15 min before addition of compounds. In parallel, 3 μl of compounds were diluted with 197 μl growth medium on a Tecan freedom-EVO pipetting station using 250 μl/s pipetting speed, in order to ensure effective mixing of the highly concentrated compound solutions with the aqueous phase. These pre-dilution plates were then equilibrated on heating blocks at 37° C. for 10 min. 80 μl pre-diluted compound were transferred manually to the corresponding wells containing HeLa cells yielding compound concentrations of 10 μM to 400 μM. Control conditions were 1% DMSO in growth medium (100% viability) and 400 μM ingenol mebutate in growth medium (0% viability). Plates were incubated on the heating blocks at 37° C. for 30 min. At the end of the incubation 10 μl PrestoBlue reagent (Invitrogen) were added to each well, plates were sealed with black seal, followed by incubation at 37° C. for 10 min with gentle shaking (150 rpm). Subsequently, plates were placed at room temperature for 20-30 min. Plates were read immediately after on an Envision Fluorescence reader (Perkin Elmer) with excitation at 535 nm and emission at 630 nm. Test compound titration curves were fitted to a four-parameter sigmoidal curve after normalizing the effect of the test compound to the effect of the positive control (4 10^−4 M PEP0005/ingenol mebutate). AbsEC50 denotes the concentration of test compound producing 50% effect.

[4] abbreviates: 6 h, read-out: HeKa cytokine release (IL-8) Rel EC50 range.

Where two headings read alike, the source gives them in different places.

For `COc1ccccc1C(=O)O[C@H]1C(C)=C[C@]23C(=O)[C@@H](C=C(CO)[C@@H](O)[C@]12O)[C@H]1[C@@H](C[C@H]3C)C1(C)C` [Compound 312, Ingenol 3-(2-methoxy-benzoate)], the EC50 is less than 0.02 µM in assay [1], 0.02 to 0.1 µM in assay [2] (setting [4]) and less than 150 µM in assay [3].
For `CC1=C[C@]23C(=O)[C@@H](C=C(CO)[C@@H](O)[C@]2(O)[C@H]1OC(=O)c1ccccc1Br)[C@H]1[C@@H](C[C@H]3C)C1(C)C` [Compound 321, Ingenol 3-(2-bromo-benzoate)] the same measures were less than 0.02 µM, less than 0.02 µM and less than 150 µM.
Regarding `CC1=C[C@]23C(=O)[C@@H](C=C(CO)[C@@H](O)[C@]2(O)[C@H]1OC(=O)c1ccccc1Nc1ccccc1)[C@H]1[C@@H](C[C@H]3C)C1(C)C` [Compound 336, Ingenol 3-(2-phenylamino-benzoate)], the half-maximal effective concentration (EC50) in assay [1] was less than 0.02 µM; in assay [2] (setting [4]), less than 0.02 µM; in assay [3], less than 150 µM.
Turning to `CC1=C[C@]23C(=O)[C@@H](C=C(CO)[C@@H](O)[C@]2(O)[C@H]1OC(=O)c1c(C)cccc1C)[C@H]1[C@@H](C[C@H]3C)C1(C)C` [Compound 315, Ingenol 3-(2,6-dimethyl-benzoate)], the EC50 in assay [1] is less than 0.02 µM; in assay [2] (setting [4]) it was 0.02 to 0.1 µM; in assay [3] it was less than 150 µM.
For `CC1=C[C@]23C(=O)[C@@H](C=C(CO)[C@@H](O)[C@]2(O)[C@H]1OC(=O)C1(C)CCCCC1)[C@H]1[C@@H](C[C@H]3C)C1(C)C` [Compound 308, Ingenol 3-(1-methyl-cyclohexanecarboxylate)] the same measures were less than 0.02 µM, less than 0.02 µM and less than 150 µM.
For `CNc1cccc(Cl)c1C(=O)O[C@H]1C(C)=C[C@]23C(=O)[C@@H](C=C(CO)[C@@H](O)[C@]12O)[C@H]1[C@@H](C[C@H]3C)C1(C)C` [Compound 342, Ingenol 3-(2-chloro-6-methylamino-benzoate)] the same measures were 0.02 to 0.1 µM, less than 0.02 µM and less than 150 µM.
The matching figures for `CC1=C[C@]23C(=O)[C@@H](C=C(CO)[C@@H](O)[C@]2(O)[C@H]1OC(=O)c1c(C)cccc1N)[C@H]1[C@@H](C[C@H]3C)C1(C)C` [Compound 335, Ingenol 3-(2-amino-6-methyl-benzoate)]: less than 0.02 µM, less than 0.02 µM and less than 150 µM.
With `CC1=C[C@]23C(=O)[C@@H](C=C(CO)[C@@H](O)[C@]2(O)[C@H]1OC(=O)C1CCCCC1)[C@H]1[C@@H](C[C@H]3C)C1(C)C` [Compound 302, Ingenol 3-(cyclohexanecarboxylate)], the half-maximal effective concentration (EC50) was less than 0.02 µM in assay [1], 0.02 to 0.1 µM in assay [2] (setting [4]) and 150 to 350 µM in assay [3].
For `CC1=C[C@]23C(=O)[C@@H](C=C(CO)[C@@H](O)[C@]2(O)[C@H]1OC(=O)c1ccccc1C(C)C)[C@H]1[C@@H](C[C@H]3C)C1(C)C` [Compound 323, Ingenol 3-(2-isopropyl-benzoate)] the same measures were less than 0.02 µM, less than 0.02 µM and less than 150 µM.
`CC1=C[C@]23C(=O)[C@@H](C=C(CO)[C@@H](O)[C@]2(O)[C@H]1OC(=O)c1ccccc1OC(C)C)[C@H]1[C@@H](C[C@H]3C)C1(C)C` [Compound 324, Ingenol 3-(2-isopropoxy-benzoate)]: the EC50 in assay [1] is less than 0.02 µM; in assay [2] (setting [4]), less than 0.02 µM; in assay [3], less than 150 µM.
For `CC1=C[C@]23C(=O)[C@@H](C=C(CO)[C@@H](O)[C@]2(O)[C@H]1OC(=O)c1c(N)cccc1Cl)[C@H]1[C@@H](C[C@H]3C)C1(C)C` [Compound 340, Ingenol 3-(2-amino-6-chloro-benzoate)], the EC50 in assay [1] was less than 0.02 µM; in assay [2] (setting [4]) it was 0.02 to 0.1 µM; in assay [3] it was less than 150 µM.
Turning to `CC1=C[C@]23C(=O)[C@@H](C=C(CO)[C@@H](O)[C@]2(O)[C@H]1OC(=O)c1ccc(F)cc1F)[C@H]1[C@@H](C[C@H]3C)C1(C)C` [Compound 314, Ingenol 3-(2,4-difluoro-benzoate)], the values for the 50% effective concentration (EC50) in assay [1], in assay [2] (setting [4]) and in assay [3] were less than 0.02 µM, less than 0.02 µM and less than 150 µM, respectively.
For `CC1=C[C@]23C(=O)[C@@H](C=C(CO)[C@@H](O)[C@]2(O)[C@H]1OC(=O)c1cccc2ccccc12)[C@H]1[C@@H](C[C@H]3C)C1(C)C` [Compound 319, Ingenol 3-(naphthalene-1-carboxylate)], the EC50 is less than 0.02 µM in assay [1], less than 0.02 µM in assay [2] (setting [4]) and less than 150 µM in assay [3].
In the case of `CC1=C[C@]23C(=O)[C@@H](C=C(CO)[C@@H](O)[C@]2(O)[C@H]1OC(=O)c1ccccc1-c1ccccc1)[C@H]1[C@@H](C[C@H]3C)C1(C)C` [Compound 320, Ingenol 3-(2-phenyl-benzoate)], the EC50 in assay [1] is less than 0.02 µM; in assay [2] (setting [4]) it was less than 0.02 µM; in assay [3], less than 150 µM.
`C/C=C(/C)C(=O)O[C@H]1C(C)=C[C@]23C(=O)[C@@H](C=C(CO)[C@@H](O)[C@]12O)[C@H]1[C@@H](C[C@H]3C)C1(C)C` [Ingenol-3-angelate, reference compound]: the EC50 in assay [1] (40 min incubation at RT, normalized to positive control 5×10^−7 M PEP0005) was less than 0.02 µM; in assay [2] (6 h at 37° C., normalized to positive control 1.5×10^−7 M PEP0005, read-out: HeKa cytokine release (IL-8) Rel EC50 range), less than 0.02 µM; in assay [3] (30 min at 37° C., PrestoBlue, normalized to 4 10^−4 M PEP0005/ingenol mebutate), 150 to 350 µM.
Take `CC1=C[C@]23C(=O)[C@@H](C=C(CO)[C@@H](O)[C@]2(O)[C@H]1OC(=O)c1c(C)cccc1NCc1ccccc1)[C@H]1[C@@H](C[C@H]3C)C1(C)C` [Compound 332, Ingenol 3-(2-benzylamino-6-methyl-benzoate)]: the half-maximal effective concentration (EC50) in assay [1] was 0.02 to 0.1 µM; in assay [2] (setting [4]), less than 0.02 µM; in assay [3], less than 150 µM.
`CC1=C[C@]23C(=O)[C@@H](C=C(CO)[C@@H](O)[C@]2(O)[C@H]1OC(=O)C12C[C@@H]4CC1C[C@@H](C4)C2)[C@H]1[C@@H](C[C@H]3C)C1(C)C` [Compound 307, Ingenol 3-(noradamantane-3-carboxylate)]: the EC50 in assay [1] was less than 0.02 µM; in assay [2] (setting [4]) it was less than 0.02 µM; in assay [3], 150 to 350 µM.
